According to BindingDB's records for doi:10.1021/cb500820b (University of Massachusetts Medical School, 2015):

Target: C-terminal-binding protein 2 (Homo sapiens, UniProt P56545)
Assay: CtBP2 ITC
Settings: pH 8.5
Excerpt: Five mM MTOB was utilized for competitive displacement assays.

CSCCC(=O)C(=O)O [4-Methylthio 2-oxobutyric acid (MTOB)]
Kd: 2960 µM
